The source of these data is article PMC10666548, “Identification of the bacterial metabolite aerugine as potential trigger of human dopaminergic neurodegeneration” (Environment international, 2023).

The nature of data set [1]: Cytotoxicity to immature (d2) LUHMES cells, calcein-AM & H-33342 imaging. The format is cell-based. The note with it: human, immature LUHMES d2, 24 h exposure, read-out: EC50 (half-maximal cytotoxic potency), cell viability. As for the experimental part:
(§1) The assays were performed as described previously ([Hoelting et al., 2016]; [Klima et al., 2021]; [Krug et al., 2013]). In brief, 30′000 cells per well were seeded on d2 (LUHMES) / d0 (peripheral neurons, Cortex.4U, CNS.4U) in their respective differentiation media into standard pre-coated 96-well plates. They were incubated for 1 h at 37 °C and 5% CO2 before treatment. 24 h after treatment the Calcein/Hoechst readout was performed.
Neurite area (NA) and viability (V) were assessed as described previously ([Stiegler et al., 2011]). In brief, cells were stained with 1 μM calcein-AM and 1 μg/ml H-33342 for 30 min at 37 °C and 5% CO2. Image acquisition was performed using an Array-Scan VTI HCS Reader (Cellomics, PA, USA) equipped with a Hamamatsu ORCA-ER camera. 10 fields per well were imaged with 2 channels at 20x magnification (2×2 pixel binning). […]
Nuclei were identified in channel 1 depending on intensity, area, size and shape. […] The NA was automatically calculated by excluding the VCSAs from the VCSs. […]
Fig. 3. […] The cell viability was assessed 24 h later by calcein-AM & H-33342 staining and high content imaging. […] The overall cell viability was assessed by measuring resazurin reduction in technical triplicates. […] The cell viability was assessed 24 h later by calcein-AM & H-33342 staining and high content imaging. […]

The subject of data set [2] is mitochondrial respiration in LUHMES cells. Nature of the data set: Seahorse assessment of mitochondrial respiratory parameters. It counts as cell-based, human. Conditions: d3 LUHMES. How it is done:
The method was performed as described previously. ([Delp et al., 2018]) In brief, LUHMES cells were seeded on d2 into pre-coated Agilent Seahorse XFe24 well plates at a density of 100′000 cells/well in differentiation medium. On d3 the cells were analyzed in a Seahorse XF analyzer using the Mito stress test kit in accordance with the manufacturer’s instructions. In brief, 1 h prior to analysis the medium was changed to Seahorse XF base medium supplemented with 18 mM glucose, 2 mM glutamine and 1 mM pyruvate. The oxygen consumption rate (OCR) was measured to determine the basal respiration in untreated cells. After test compound injection the acute response was quantified. […] The addition of 0.5 μM rotenone and 0.5 μM antimycin A completely shut down mitochondrial respiration to quantify non-mitochondrial respiration. […] Image acquisition was performed using an Array-Scan VTI HCS Reader (Cellomics, PA, USA) equipped with a Hamamatsu ORCA-ER camera. […] Nuclei were identified and quantified depending on intensity, area, size and shape. According to pixel size and well size the total cell count was calculated and used for normalization of the OCR data. […]
A The effect of aerugine on respiratory function was analysed in d3 LUHMES cells. […] C Delp et al. (2019) determined the dependence of LUHMES cells on glycolysis and their mitochondria for ATP production in two different media conditions. […]

The test system of data set [3] is Cortical neurons (Cortex.4U). As to the kind of experiment: iPSC-derived neuron viability, calcein-AM & H-33342 imaging. The format is cell-based, human. As for the experimental part: (§2) Commercial preparation of iPSC-derived neurons (Cortex.4U and CNS.4U) were handled and used as described by the manufacturer (nCardia). In brief, plates were coated with 10 μg/ml PLO, 10 μg/ml laminin and 10 μg/ml fibronectin. Cells were thawed and immediately seeded onto 96-well plates in their respective culture media (Cortex.4U: Cortex.4U™ culture medium with Cortex.4U™ supplement; CNS.4U: Neuro.4U Basal Medium [Ax-M-NBM250] with Neuro-Supplement 2 [Ax-M-DCS-DA]) to be used in neurite outgrowth assays.
as §1
(§3) Neurite area (NA) and viability (V) were assessed as described previously ([Stiegler et al., 2011]). In brief, cells were stained with 1 μM calcein-AM and 1 μg/ml H-33342 for 30 min at 37 °C and 5% CO2. Image acquisition was performed using an Array-Scan VTI HCS Reader (Cellomics, PA, USA) equipped with a Hamamatsu ORCA-ER camera. 10 fields per well were imaged with 2 channels at 20x magnification (2×2 pixel binning). Excitation/emission wavelengths of 365 ± 50/535 ± 45 nm were used for Hoechst detection in channel 1 and 474 ± 40/535 ± 45 nm were used for calcein detection in channel 2.

The test system of data set [4] is Mixed central nervous system neurons (CNS.4U). Described as above. The format is cell-based, human. Conditions: 24 h, at higher concentrations than LUHMES. As for the experimental part: as §2, §1, §3

Entries after “also recorded” stand apart in the source; their conditions may differ.

As for `OCC1CSC(c2ccccc2O)=N1` (stereo not drawn) [aerugine, 2-[4-(hydroxymethyl)-4,5-dihydro-1,3-thiazol-2-yl]phenol], the half-maximal effective concentration (EC50) at 24 h in data set [1] is 9.3 ± 1.1 µM. Further, in data set [2], the “functional respiratory parameters (e.g. basal respiration, ATP production)” value is listed as “no significant difference was observed”. Further, the “oxygen consumption rate (OCR)” value in data set [2] (various metabolic conditions) is reported as “not different from control conditions; also recorded: No interaction”. Further, the “effect on cell viability” value was “sensitive to aerugine” in data set [3] (24 h) and “clearly affected by aerugine” in data set [4]. For the same compound, the “fold higher toxic concentration than for DA neurons (mature LUHMES)” value in data set [3] (cortical neurons vs mature LUHMES) is reported as “about 50 x”.
